Results as given in ChEMBL document CHEMBL6121044, “Discovery of Novel Spirocyclic MAT2A Inhibitors Demonstrating High In Vivo Efficacy in MTAP-Null Xenograft Models” (J Med Chem, 2025).

What was measured:
[1] = In vivo antitumor activity against MTAP-deleted human KP-4 cells xenografted mouse model assessed as tumor growth inhibition at 30 mg/kg, po qd measured after 18 days relative to control; type: functional; settings: KP-4, 432 h, time 18 day, read-out: TGI
[2] = tested on: HCT-116; assay: In vivo antitumor activity against MTAP-deleted human HCT-116 cells xenografted mouse model assessed as tumor growth inhibition at 10 mg/kg, po qd measured after 18 days relative to control; type: functional; settings: HCT-116, 432 h, time 18 day, read-out: TGI
[3] = tested on: HCT-116; assay: In vivo antitumor activity against MTAP-deleted human HCT-116 cells xenografted mouse model assessed as tumor growth inhibition at 30 mg/kg, po qd measured after 18 days relative to control; type: functional; settings: HCT-116, 432 h, time 18 day, read-out: TGI
[4] = tested on: KP-4; assay: In vivo antitumor activity against human KP-4 cells xenografted mouse model assessed as tumor growth inhibition at 90 mg/kg, po qd measured after 18 days relative to control; type: functional; settings: KP-4, 432 h, time 18 day, read-out: TGI
[5] = AUCinf in male Sprague-Dawley rat at 2 mg/kg, iv measured upto 24 hrs upto 24 hrs by LC-MS/MS analysis; type: ADME, organism-based; settings: in vivo
[6] = In vivo antitumor activity against MTAP-deleted human NCI-H838 cells xenografted mouse model assessed as tumor growth inhibition at 10 mg/kg, po qd measured after 18 days relative to control; type: functional; settings: NCI-H838, 432 h, time 18 day, read-out: TGI
[7] = In vivo antitumor activity against MTAP-deleted human NCI-H838 cells xenografted mouse model assessed as tumor growth inhibition at 3 mg/kg, po qd measured after 18 days relative to control; type: functional; settings: NCI-H838, 432 h, time 18 day, read-out: TGI
[8] = Chronic toxicity in male ICR mouse assessed as body weight loss at 10 mg/kg, po once daily measured after 19 days relative to control; type: organism-based; settings: in vivo, 456 h, time 19 day
[9] = tested on: HCT-116; assay: In vivo antitumor activity against MTAP-deleted human HCT-116 cells xenografted mouse model assessed as tumor growth inhibition at 3 mg/kg, po qd measured after 18 days relative to control; type: functional; settings: HCT-116, 432 h, time 18 day, read-out: TGI
[10] = Toxicity in mouse xenografted with MTAP-deleted human HCT116 cells assessed as body weight loss at 10 mg/kg, po qd measured after 18 days relative to control; type: organism-based; settings: in vivo, 432 h, time 18 day
[11] = tested on: HCT-116; assay: In vivo antitumor activity against MTAP-deleted human HCT-116 cells xenografted mouse model assessed as tumor growth inhibition at 1 mg/kg, po qd measured after 18 days relative to control; type: functional; settings: HCT-116, 432 h, time 18 day, read-out: TGI
[12] = In vivo antitumor activity against MTAP-deleted human KP-4 cells xenografted mouse model assessed as tumor growth inhibition at 10 mg/kg, po qd measured after 18 days relative to control; type: functional; settings: KP-4, 432 h, time 18 day, read-out: TGI
[13] = Chronic toxicity in female ICR mouse assessed as body weight loss at 10 mg/kg, po once daily measured after 19 days relative to control; type: organism-based; settings: in vivo, 456 h, time 19 day
[14] = Volume of distribution at steady state in male ICR mouse at 2 mg/kg, iv measured upto 24 hrs by LC-MS/MS analysis; type: ADME, organism-based; settings: in vivo, read-out: Vdss

AUC ([5]; iv, 2 mg/kg, 24 h) | AUC(0-inf) ([5]; male, Sprague-Dawley) | Vd [14] | SMILES | inhibition in vivo at 30 mg/kg [1] | inhibition in vivo at 10 mg/kg [2] | inhibition in vivo at 30 mg/kg [3] | inhibition in vivo at 90 mg/kg [4] | inhibition in vivo at 10 mg/kg [6] | inhibition in vivo at 3 mg/kg [7] | Activity [8] | inhibition in vivo at 3 mg/kg [9] | Activity [10] | inhibition in vivo at 1 mg/kg [11] | inhibition in vivo at 10 mg/kg [12] | Activity [13]
2212 ng·h/mL | – | – | [2H]C([2H])([2H])NC1=NC(=O)[C@]2(CCc3ncccc32)c2cc(C(C)(F)F)ccc21 | 62% | 72.1% | 85.4% | 74% | – | – | – | – | – | – | – | –
– | 4990 ng·h/mL | 1.7 L/kg | [2H]C([2H])([2H])NC1=NC(=O)[C@]2(CCc3ncccc32)c2cc(C(F)(F)F)ccc21 | – | – | – | – | 78.1% | 61.5% | 9.77% | 85.9% | ~ 15% | 61.9% | 80% | 2.36%
